Blank lines part the entries; values can stand above or below the molecule they belong to.
Assay: solvent given as SMILES

emission maximum (in CC#N): 581 nm
emission maximum (in CCO): 571 nm
emission maximum (in CN(C)C=O): 585 nm
emission maximum (in O): 581 nm
Structure (SMILES): CCOC(=O)c1ccccc1-c1c2ccc(=[N+](CC)CC)cc-2oc2cc(N(CC)CC)ccc12

emission maximum (in C1CCCCC1): 330 nm
emission maximum (in CC#N): 344 nm
emission maximum (in CO): 350 nm
emission maximum (in O): 351 nm
Structure (SMILES): CCOC(=O)CCOc1ccc(C(c2c(C)[nH]c3ccccc23)c2c(C)[nH]c3ccccc23)cc1OC

emission maximum (in ClCCl): 704 nm
Structure (SMILES): CCCCCN1c2ccccc2Sc2cc(/C=C/c3ccc(/C=C(\C#N)C(=O)O)s3)ccc21

emission maximum (in CCO): 650 nm
Structure (SMILES): CC1=C(Cl)C(/C=C/c2ccc3c(c2)c2ccccc2n3Cc2cn(CCC[P+](c3ccccc3)(c3ccccc3)c3ccccc3)nn2)=[N+]2C1=C(c1ccc(I)cc1)c1c(C)c(Cl)c(C)n1[B-]2(F)F

emission maximum (in ClCCl): 450 nm
Structure (SMILES): N#Cc1ccc(/C=C/c2ncc(-c3ccccc3)o2)cc1

Structure (SMILES): C[n+]1ccc(/C=C/c2ccc([O-])cc2)cc1
emission maximum (in CC#N): 606 nm
emission maximum (in CC(C)=O): 610 nm
emission maximum (in CC(C)O): 594 nm
emission maximum (in CCCO): 587 nm
emission maximum (in CCO): 582 nm
emission maximum (in CN(C)C=O): 608 nm
emission maximum (in CO): 576 nm
emission maximum (in CS(C)=O): 608 nm
emission maximum (in ClCCl): 615 nm
emission maximum (in NC=O): 577 nm
emission maximum (in O): 560 nm
emission maximum (in OCCO): 573 nm

emission maximum (in ClCCl): 412 nm
Structure (SMILES): Cc1cc(C)c(C)c(-c2cc(-c3c(C)c(C)cc(C)c3C)c3ccc4c(-c5c(C)c(C)cc(C)c5C)cc(-c5c(C)c(C)cc(C)c5C)c5ccc2c3c54)c1C

emission maximum (in O): 559 nm
Structure (SMILES): CCn1c2ccc(S(=O)(=O)O)cc2c(=O)c2cc3c(cc21)c(=O)c1cc(S(=O)(=O)O)ccc1n3CCCCCC(=O)O

emission maximum (in CCCCCC): 648 nm
Structure (SMILES): CC(C)[Si](C#Cc1c2nc3ccccc3nc2c(C#C[Si](C(C)C)(C(C)C)C(C)C)c2nc3c(ccc4cc5ccccc5cc43)nc12)(C(C)C)C(C)C

Structure (SMILES): CCN(CC)c1ccc2cc(/C=C/C(=C(C#N)C#N)c3ccc4c(c3)c3ccccc3n4CC)c(=O)oc2c1
emission maximum (in CC(C)=O): 614 nm
emission maximum (in CCOC(C)=O): 590 nm
emission maximum (in CN(C)C=O): 629 nm
emission maximum (in CS(C)=O): 638 nm
emission maximum (in Cc1ccccc1): 571 nm
emission maximum (in ClCCl): 604 nm

emission maximum (in CC#N): 558 nm
emission maximum (in ClCCl): 547 nm
Structure (SMILES): COc1ccc(-c2cc3c(s2)c(C(=O)c2ccccc2)cc(=O)n3Cc2ccccc2)cc1

Structure (SMILES): CN(C)c1ccc(/C=C/C=C/c2ccc(C#N)cc2)cc1
emission maximum (in CC#N): 589 nm
emission maximum (in CCCC#N): 579 nm
emission maximum (in CCCCCC): 440 nm
emission maximum (in CCOCC): 509 nm

Structure (SMILES): COc1cc(/C=C/c2ccccc2)cc(OC)c1
emission maximum (in C1CCCCC1): 364 nm
emission maximum (in CC#N): 390 nm
emission maximum (in CC(C)O): 382 nm
emission maximum (in CCCCOCCCC): 372 nm
emission maximum (in CCOC(C)=O): 382 nm
emission maximum (in CCOCC): 374 nm

emission maximum (in CC#N): 529 nm
emission maximum (in CCCCCCO): 535 nm
emission maximum (in CCCCO): 534 nm
emission maximum (in CCCO): 532 nm
emission maximum (in CCO): 530 nm
emission maximum (in CO): 528 nm
emission maximum (in CS(C)=O): 536 nm
emission maximum (in OCC(O)CO): 535 nm
emission maximum (in OCCO): 532 nm
Structure (SMILES): CCN1C(=CC=Cc2n(CC)c3cc(Cl)c(Cl)cc3[n+]2CC)N(CC)c2cc(Cl)c(Cl)cc21

emission maximum (in CS(C)=O): 494 nm
Structure (SMILES): BrC1=CN2C[n+]3cc(Br)cc(Br)c3N=C2C(Br)=C1

Structure (SMILES): CN(C)c1ccc(C2=Cc3cccc[n+]3[B-](F)(F)O2)cc1
emission maximum (in C1CCOC1): 499 nm
emission maximum (in C1COCCO1): 486 nm
emission maximum (in CC1CCCCC1): 447 nm
emission maximum (in CC#N): 528 nm
emission maximum (in CCOC(C)=O): 499 nm
emission maximum (in CCOCC): 477 nm
emission maximum (in CN(C)C=O): 530 nm
emission maximum (in CO): 517 nm
emission maximum (in COC(C)=O): 514 nm
emission maximum (in ClC(Cl)Cl): 490 nm

emission maximum (in C1CCCCC1): 566 nm
emission maximum (in CC1CCCCC1): 566.5 nm
emission maximum (in CC#N): 593 nm
emission maximum (in CCC(C)CC): 566 nm
emission maximum (in CCCCCC): 566.2 nm
emission maximum (in CCOC(C)=O): 585 nm
Structure (SMILES): CN(C)c1cccc2c1C(=O)c1ccccc1C2=O

emission maximum (in ClCCl): 511 nm
Structure (SMILES): CC(C)[Si](C#Cc1cc2c3c(c1)c(=C1c4ccccc4Sc4ccccc41)c1cc(C#C[Si](C(C)C)(C(C)C)C(C)C)cc4c1N3c1c(cc(C#C[Si](C(C)C)(C(C)C)C(C)C)cc1c4=C1c3ccccc3Sc3ccccc31)c2=C1c2ccccc2Sc2ccccc21)(C(C)C)C(C)C

emission maximum (in C1CCOC1): 482 nm
emission maximum (in CC#N): 485 nm
emission maximum (in CCO): 489 nm
emission maximum (in CN(C)C=O): 492 nm
emission maximum (in CO): 495 nm
emission maximum (in CS(C)=O): 497 nm
Structure (SMILES): CSc1sc(C(=O)c2ccccc2)c2nn[nH]c(=O)c12

Structure (SMILES): O=C1c2ccc(-c3ccc(N(c4ccc(-c5ccccc5)cc4)c4ccc(-c5ccccc5)cc4)cc3)cc2C(=O)c2ccc(-c3ccc(N(c4ccc(-c5ccccc5)cc4)c4ccc(-c5ccccc5)cc4)cc3)cc21
emission maximum (in Cc1ccccc1): 608 nm
emission maximum (in c1ccc2c(c1)c1ccccc1n2-c1ccc(-c2ccc(-n3c4ccccc4c4ccccc43)cc2)cc1): 601 nm

Structure (SMILES): O=C(N/N=C/c1ccccc1O)c1cccc2ccccc12
emission maximum (in C1CCOC1): 436 nm
emission maximum (in CC#N): 376 nm
emission maximum (in CC(C)=O): 428 nm
emission maximum (in CCO): 429 nm
emission maximum (in CN(C)C=O): 560 nm
emission maximum (in CS(C)=O): 336 nm
emission maximum (in ClCCl): 393 nm

Structure (SMILES): CC1CC=C(c2ccc(-c3ccc(C#N)s3)s2)CC1 (configuration not stated)
emission maximum (in C1CCOC1): 443 nm
emission maximum (in CC#N): 448 nm
emission maximum (in CCCCCC): 427 nm
emission maximum (in CCO): 443 nm
emission maximum (in OCCOCCO): 451 nm
emission maximum (in c1ccncc1): 452 nm

emission maximum (in ClC(Cl)Cl): 516.4 nm
Structure (SMILES): CC1=CC(C)=[N+]2C1=C(c1ccc(I)cc1)c1c(C)cc(C)n1[B-]21Oc2ccc3ccccc3c2-c2c(ccc3ccccc23)O1

Structure (SMILES): O=C1/C(=C\c2ccc3oc4ccccc4c3c2)S(=O)(=O)c2ccccc21
emission maximum (in C1CCOC1): 437 nm
emission maximum (in C1COCCO1): 436 nm
emission maximum (in CC#N): 480 nm
emission maximum (in CC(C)=O): 458 nm
emission maximum (in CCOC(C)=O): 429 nm
emission maximum (in CN(C)C=O): 445 nm
emission maximum (in CO): 439 nm
emission maximum (in CS(C)=O): 449 nm
emission maximum (in Cc1ccccc1): 430 nm
emission maximum (in ClC(Cl)Cl): 441 nm
emission maximum (in ClCCl): 438 nm

emission maximum (in ClC(Cl)Cl): 461 nm
Structure (SMILES): O=c1c2cc3ccc4cccc5ccc(c2c(=O)n1-c1ccccc1)c3c45

emission maximum (in C1CCOC1): 406 nm
Structure (SMILES): CC(C)(C)c1ccc(-c2c(-c3ccc(-n4c5ccccc5c5ccccc54)cc3)c(C#N)c(-c3ccc(-n4c5ccccc5c5ccccc54)cc3)c(-c3ccc(C(C)(C)C)cc3)c2-c2ccc(C(C)(C)C)cc2)cc1

emission maximum (in CS(C)=O): 520 nm
Structure (SMILES): N#Cc1c(/C=C/c2ccc(N(c3ccccc3)c3ccccc3)cc2)cc(-c2ccccc2)cc1N1CCCCC1

emission maximum (in C1CCCCC1): 373 nm
Structure (SMILES): CB1C=Cc2ccc3ccccc3c2N1

Structure (SMILES): N#Cc1cc(C#N)c(-c2ccc(N(c3ccccc3)c3ccccc3)cc2)cc1-c1ccc(N(c2ccccc2)c2ccccc2)cc1
emission maximum (in Cc1ccccc1): 477 nm

emission maximum (in CO): 663 nm
emission maximum (in CS(C)=O): 673 nm
emission maximum (in O): 669 nm
Structure (SMILES): CCCN1/C(=C/C=C(/C=C/c2sc3ccccc3[n+]2CCC)c2ccc([N+](=O)[O-])cc2)Sc2ccccc21

Structure (SMILES): CCN(CC)c1ccc2cc(/C=C/C(O)=C3\CC/C(=C\c4cc5ccc(N(CC)CC)cc5oc4=O)C3=O)c(=O)oc2c1
emission maximum (in C1COCCO1): 581 nm
emission maximum (in CC#N): 637 nm
emission maximum (in CC(C)=O): 613 nm
emission maximum (in CCOC(C)=O): 589 nm
emission maximum (in CN(C)C=O): 638 nm
emission maximum (in CS(C)=O): 639 nm
emission maximum (in Cc1ccccc1): 570 nm
emission maximum (in ClC(Cl)Cl): 605 nm

emission maximum (in c1cc(-c2cccc(-n3c4ccccc4c4ccccc43)c2)cc(-n2c3ccccc3c3ccccc32)c1): 485 nm
emission maximum (in c1ccc2c(c1)c1ccccc1n2-c1ccc2sc3ccc(-n4c5ccccc5c5ccccc54)cc3c2c1): 489 nm
emission maximum (in c1ccc2c(c1)c1ccccc1n2-c1ccc2sc3ccc(-n4c5ccccc5c5cccnc54)cc3c2c1): 495 nm
emission maximum (in c1ccc2c(c1)c1cccnc1n2-c1ccc2sc3ccc(-n4c5ccccc5c5cccnc54)cc3c2c1): 498 nm
Structure (SMILES): Cc1cc(-n2c3ccccc3c3ccccc32)c(-n2c3ccccc3c3ccccc32)cc1C#N

Structure (SMILES): c1cc2c3cc1c1ccc4c(c1)c1cc(ccc1[C@]15OCCO[C@]41OCCO5)c1ccc4c(c1)c1cc(ccc1[C@]15OCCO[C@]41OCCO5)c1ccc(c3c1)[C@]13OCCO[C@]21OCCO3
emission maximum (in Cc1ccccc1): 343 nm

emission maximum (in CS(C)=O): 552 nm
emission maximum (in ClCCl): 509 nm
Structure (SMILES): CCNc1cc2oc(=O)c3c(=O)oc4ccccc4c3c2cc1C

emission maximum (in ClCCl): 411 nm
Structure (SMILES): Cc1cc(C)c(-c2cc(-c3c(C)cc(C)cc3C)c3ccc4c(-c5c(C)cc(C)cc5C)cc(-c5c(C)cc(C)cc5C)c5ccc2c3c54)c(C)c1

emission maximum (in ClCCl): 511 nm
Structure (SMILES): CCCCCc1ccc(C#Cc2cc(C#Cc3ccc(CCCCC)cc3)c3ccc4c(C(=O)c5ccccc5)cc(C#Cc5ccc(CCCCC)cc5)c5ccc2c3c54)cc1

Structure (SMILES): COc1cc(OC)cc(C2=[O+][B-](F)(F)OC(c3cccs3)=C2)c1
emission maximum (in CCCCCC): 434.88 nm
emission maximum (in Cc1ccccc1): 502.25 nm
emission maximum (in ClCCl): 567 nm

emission maximum (in ClCCl): 449 nm
Structure (SMILES): COc1cc(OC)cc(C2=CC(c3ccccc3)=C(c3ccccc3)C2)c1

emission maximum (in CCO): 380 nm
Structure (SMILES): Cc1cc(=O)oc2cc(O)ccc12

Structure (SMILES): CCCCCCCCCC1(CCCCCCCCC)c2cc(C#Cc3ccc(/C=C/c4ccc(N(CCCCCCCC)CCCCCCCC)cc4)cc3)ccc2-c2ccc(C#Cc3ccc(/C=C/c4ccc(N(CCCCCCCC)CCCCCCCC)cc4)cc3)cc21
emission maximum (in Cc1ccccc1): 464 nm

emission maximum (in CCO): 658 nm
emission maximum (in ClC(Cl)Cl): 647 nm
emission maximum (in O): 666 nm
Structure (SMILES): CCOC(=O)c1ccccc1-c1c2ccc(=[N+](CC)CC)cc-2oc2c1c(=O)oc1cc3c(cc12)CCCN3C

emission maximum (in ClC(Cl)Cl): 460 nm
Structure (SMILES): CCCCn1c(=O)c2cc3ccc4cccc5ccc(c2c1=O)c3c45

emission maximum (in ClC(Cl)Cl): 396 nm
Structure (SMILES): Cc1ccc2c(c1)c(C#N)c(C#N)c1cc(C)ccc12

emission maximum (in CC#N): 528 nm
Structure (SMILES): CN(C)c1ccc(-c2nc3nc4ccccc4nc3n2-c2ccccc2)cc1

emission maximum (in ClCCl): 533 nm
Structure (SMILES): O=c1oc2ccccc2c2c1c(=O)oc1c3ccccc3cc(O)c12

Source: the Deep4Chem optical property database
